Here are results for 66 compounds from PubChem BioAssay AID1208 (EPA DSSTox, 2008).

Active and inactive are the calls of the source.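 How the source made its calls: active means at least one rat sex group has a carcinogenic potency value and tumor site recorded; inconclusive means only rat studies were judged inadequate by the national testing program; inactive means no potency or tumor site, with negative rat experiments.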 Where a SMILES comes first, the peptide text is derived from it.

The test system of the data set is rat chronic carcinogenicity bioassay, TD50. Kind of data set: DSSTox (CPDBAS) Carcinogenic Potency Database Summary Rat Bioassay Results. The conditions noted are these: for Potency: stronger effect = lower value. An excerpt:
The Carcinogenic Potency Database (CPDB) is a unique and widely used international resource of the results of over 6500 chronic, long-term animal cancer tests on over 1500 chemical substances. The CPDB provides easy access to the bioassay literature, with qualitative and quantitative analyses of both positive and negative experiments that have been published over the past 50 years in the general literature and by the National Cancer Institute/National Toxicology Program. The CPDB standardizes the diverse literature of cancer bioassays that vary widely in protocol, histopathological examination and nomenclature, and in the published author's choices of what information to provide in their papers. Results are reported in the CPDB for tests in rats, mice, hamsters, dogs, and nonhuman primates, and are based on the most positive result among all experiments for each sex-species. The DSSTox CPDBAS (all species) file incorporates data from the CPDB Summary Tables for the full list of over 1500 chemical substances tested in at least one species. Summary bioassay results for Rat (TD50, tumor sites, male, female, both sexes) are provided in the CPDB Summary Tables and the DSSTox CPDBAS file for over 1200 chemical substances.
TD50 is a standardized quantitative measure of carcinogenic potency (analogous to an LD50) and is reported in the CPDB Summary Table for each species. Activity Score for actives is computed by mapping of LOG10 (1/TD50_Rat_mmol) activity values spanning range [MIN, MAX] onto Integer 1-100 Activity Score range, where 100 is highest potency and 1 is lowest: Activity Score = 100 * INTEGER[(log10(1/Activity) - MIN)/(MAX - MIN)]. If activity is reported but no TD50_Rat_mmol value is computed, such as for a mixture, the Activity Score is assigned the activity value "50". […] Target sites are reported for each sex-species group with a positive result in the CPDB on the basis of a positive author's opinion for the particular site, using all results from both the general literature and NCI/NTP bioassays. If a chemical has two or more target sites listed, the results may be from different experiments, and a single site may be a target organ in more than one experiment, as well. Blank entry in TargetSites field indicates no results reported.

The mark [1] stands for this setting: TD50_Rat_Note: TD50 value is overestimated as upper 99% confidence limit from study with 100% tumor incidence but no lifetable, harmoni.
[2] abbreviates: TD50_Rat_Note: no positive results.
Where [3] appears, read: TD50_Rat_Note: no positive results, TargetSites_Rat_Female: no positive results.
Setting [4] is: TargetSites_Rat_Female: no positive results.
Where [5] appears, read: TargetSites_Rat_Female: mammary gland.

As to `COc1cc(O)c2c(=O)c3c(OC)cc4c(c3oc2c1OC)C1C=COC1O4` (configuration not stated), under setting [1], the Potency was 0.364 mg/kg/day.

Consider `O=C1CCN([C@@H]2O[C@H](CO)[C@@H](O)[C@H]2O)C(=O)N1`, for which the outcome under setting [2] was “inactive; no positive results”.

On to `O=NN(CC(=O)O)CC(=O)O`, for which the outcome under setting [3] was “inactive; no positive results”. In the case of `CC(=O)OC(OC(C)=O)c1ccc([N+](=O)[O-])o1`, the result under setting [3] was inactive. As for `OC(O)C(Cl)(Cl)Cl`, under setting [2], the outcome is “inactive; no positive results”.

Turning to `COC(=O)[C@H](Cc1ccccc1)NC(=O)[C@@H](N)CC(=O)O` (H-Asp-Phe-OMe), the outcome under setting [3] is “inactive; no positive results”. Turning to `CCN(CC)C(C)=O`, the Potency (TD50_Rat_Note: no positive results are statistically significant) is 8.85 mg/kg/day.

Turning to `Nc1cc(Cl)cc(C(=O)O)c1Cl`, the outcome under setting [3] was “inactive; no positive results”.

For `CC(=O)Nc1ccc(C(=O)CCl)cc1`, the outcome under setting [3] was “inactive; no positive results”. Regarding `CCSCC[C@H](N)C(=O)O`, the Potency under setting [1] was 4.97 mg/kg/day. Turning to `Cc1cc2c(nc1N)[nH]c1ccccc12`, the Potency is 6.7 mg/kg/day.

In the case of `CCOP(=O)=O.CCOP(=O)=O.CCOP(=O)=O.[Al+3]`, the Potency under setting [4] is 3660 mg/kg/day. Take `C=COC(C)=O`: the Potency (TD50_Rat_Note: TD50 is harmonic mean of more than one positive test, greater than ten-fold variation among TD50 values for positive res, TargetSites_Rat_Female: liver, nasal cavity, thyroid gland, uterus) is 341 mg/kg/day.

On to `NCCNc1cccc2ccccc12`, for which the outcome under setting [3] was “inactive; no positive results”. The same measure, in the same setting: the result for `ClC1=C(Cl)[C@]2(Cl)[C@@H]3[C@H]4C[C@H]([C@@H]5O[C@H]45)[C@@H]3[C@@]1(Cl)C2(Cl)Cl` reads “inactive; no positive results”; that for `N[C@@H](CS)C(=O)O`, “inactive; no positive results”. As to `CCN(CC)C(=O)/C(Cl)=C(\C)OP(=O)(OC)OC`, the outcome (TD50_Rat_Note: only experiment is NCI/NTP bioassay inadequate, TargetSites_Rat_Female: NTP bioassay inadequate) is “ntp bioassay inadequate”. For the compound `Cc1cc(N=Nc2c(O)ccc3ccccc23)c(S(=O)(=O)O)cc1Cl`, under setting [4], the Potency is 146 mg/kg/day. On to `O=[N+]([O-])c1ccc2ccc3cccc4ccc1c2c34`, for which, where the note is “TargetSites_Rat_Female: clitoral gland, hematopoietic system, mammary gland”, the Potency is 3.33 mg/kg/day. As for `Cn1cc(OCC(O)CNC(C)(C)C)c2ccccc2c1=O` (configuration not stated), the outcome under setting [3] is “inactive; no positive results”. `CO[C@@]12[C@H](COC(N)=O)C3=C(C(=O)C(C)=C(N)C3=O)N1C[C@@H]1N[C@@H]12`: the Potency (TD50_Rat_Note: positive test results only by intraperitoneal or intravenous injection, TD50 is harmonic mean of more than one positive, TargetSites_Rat_Female: peritoneal cavity) is 0.00102 mg/kg/day. Turning to `CCCCCC`, the outcome under setting [3] is “inactive; no positive results”. As for `CC(=O)Oc1c(C)c(C)c2c(c1C)CCC(C)(CCCC(C)CCCC(C)CCCC(C)C)O2` (configuration not stated), under setting [3], the outcome is “inactive; no positive results”. `Cc1ccc(N)cc1N`: the Potency is 4.42 mg/kg/day. Moreover, the Potency (TD50_Rat_Note: TD50 is harmonic mean of more than one positive test, TargetSites_Rat_Female: liver, mammary gland) is 2.47 mg/kg/day. Turning to `CCN(CC)c1cc2oc3cc(=[N+](CC)CC)c(C)cc-3c(-c3ccc(S(=O)(=O)O)cc3S(=O)(=O)[O-])c2cc1C`, the outcome under setting [3] is “inactive; no positive results”. As for `COc1cc2c(c3oc4cccc(O)c4c(=O)c13)C1C=COC1O2` (configuration not stated), the Potency (TD50_Rat_Note: TD50 is harmonic mean of more than one positive test, greater than ten-fold variation among TD50 values for positive res, TargetSites_Rat_BothSexes: liver) was 0.152 mg/kg/day.

With `CCOP(=S)(OCC)Oc1cc(C)nc(C(C)C)n1`, under setting [3], the outcome is “inactive; no positive results”. `CCCCCCN(N=O)C(N)=O`: the Potency (TD50_Rat_Note: TD50 is harmonic mean of more than one positive test, harmonic mean of TD50 includes a value for upper 99% confidence li, TargetSites_Rat_Female: lung, mammary gland, stomach, uterus) is 0.513 mg/kg/day. For the compound `O=C1c2cccc(O)c2C(=O)c2c(O)cccc21`, the Potency is 245 mg/kg/day. For `OC[C@@H](O)[C@@H](O)[C@H](O)[C@H](O)CO`, under setting [3], the outcome was “inactive; no positive results”. For the compound `CCOC(=O)C(C)(C)Oc1ccc(Cl)cc1`, the Potency is 169 mg/kg/day. `Cc1cccc(Nc2cc(Cl)nc(SCC(=O)O)n2)c1C`: for the setting “TD50_Rat_Note: TD50 is harmonic mean of more than one positive test, harmonic mean of TD50 includes a value for upper 99% confidence li”, the Potency is 4.36 mg/kg/day. For the compound `COc1ccc2c(c1)c(CC(=O)O)c(C)n2C(=O)c1ccc(Cl)cc1`, the Potency under setting [5] was 1.15 mg/kg/day.

With `CCCCN(N=O)C(=N)N[N+](=O)[O-]`, the outcome under setting [2] is “inactive; no positive results”. `CCCCCc1cc(O)c2c(c1)OC(C)(C)[C@@H]1CCC(C)=C[C@@H]21`: the outcome under setting [3] was “inactive; no positive results”. On the same count and under the same terms, the result for `CC1CN(N=O)C(=O)NC1=O` (configuration not stated) reads “inactive; no positive results”. Turning to `CC(C)CCCCCCOC(=O)c1ccccc1C(=O)OCCCCCCC(C)C`, the Potency (TD50_Rat_Note: TD50 is harmonic mean of more than one positive test, TD50_Rat_mmol was not calculated for this mixture, but Activiity S, TargetSites_Rat_Female: hematopoietic system, liver) is 861 mg/kg/day. On to `ClC(Cl)C(Cl)(Cl)Cl`, for which the outcome under setting [3] is “inactive; no positive results”.

For `CCCCC(CC)CO` (configuration not stated), under setting [3], the outcome was “inactive; no positive results”. With `CCN(Cc1cccc(S(=O)(=O)O)c1)c1ccc(C(=C2C=CC(=[N+](CC)Cc3cccc(S(=O)(=O)[O-])c3)C=C2)c2ccc(S(=O)(=O)O)cc2)cc1`, the Potency (TargetSites_Rat_BothSexes: hematopoietic system) is 5640 mg/kg/day.

On to `COc1cccc(O)c1O`, for which the Potency was 48.7 mg/kg/day. On to `CC(C)(C)NCC(O)c1ccc(O)c(CO)c1` (configuration not stated), for which the Potency (TD50_Rat_Note: TD50 is harmonic mean of more than one positive test, TargetSites_Rat_Female: mesovarium) was 40 mg/kg/day. For `Cc1cc(N)ccc1N`, the outcome under setting [3] was “inactive; no positive results”. As for `CCNC(=O)Nc1ncc([N+](=O)[O-])s1`, under setting [5], the Potency was 131 mg/kg/day. For the compound `C#C[C@]1(OC(C)=O)CC[C@H]2[C@@H]3CCC4=CC(=O)CC[C@@H]4[C@H]3CC[C@@]21C`, for the setting “TD50_Rat_Note: TD50_Rat_mmol was not calculated for this mixture, but Activiity Score is assigned value of 50 to indicate active, TargetSites_Rat_BothSexes: liver, mammary gland, pituitary gland, uterus”, the Potency was 1.94 mg/kg/day.

Regarding `COCCl`, the Potency is 5.5 mg/kg/day. For the compound `Cc1cc(C)c(S(=O)(=O)O)cc1N=Nc1cc(S(=O)(=O)O)c2ccccc2c1O`, the Potency (TD50_Rat_Note: TD50 is harmonic mean of more than one positive test, TargetSites_Rat_BothSexes: hematopoietic system) was 8110 mg/kg/day. For `O=[N+]([O-])c1ccc(-c2nc(N3CCOCC3)c3ccccc3n2)s1`, the Potency (TargetSites_Rat_Female: all tumor bearing animals) was 5.03 mg/kg/day. As to `C=CC(=O)NCO`, the outcome under setting [3] was “inactive; no positive results”.

For `CC(=O)Nc1ccc(CC(=O)O)cc1`, the outcome under setting [3] was “inactive; no positive results”. The same measure, in the same setting: next, `O=C1c2ccccc2C(=O)N1SC(Cl)(Cl)Cl`: “inactive; no positive results”; `CC(C)[N+](=O)[O-]`: “inactive; no positive results”. Turning to `CC(=O)Nc1ccc2c(c1)Cc1ccccc1-2`, the Potency (TD50_Rat_Note: TD50 is harmonic mean of more than one positive test, TargetSites_Rat_Female: liver, mammary gland, skin) was 1.22 mg/kg/day. With `COC(=O)[C@H]1[C@H]2C[C@@H]3c4[nH]c5ccccc5c4CCN3C[C@H]2C[C@@H](OC(=O)c2cc(OC)c(OC)c(OC)c2)[C@@H]1OC`, the result (TD50_Rat_Note: no positive results, TargetSites_Rat_BothSexes: no positive results) was inactive. Take `O=Cc1ccco1`: the Potency under setting [4] is 683 mg/kg/day.

With `CCCCCCCCS(=O)C(C)Cc1ccc2c(c1)OCO2` (configuration not stated), the outcome under setting [3] is “inactive; no positive results”. Regarding `COc1cc(OC)c2c3c(c(=O)oc2c1)C(=O)CC3`, under setting [2], the outcome is “inactive; no positive results”.

On to `CC(CN1c2ccccc2Sc2ccccc21)N(C)C` (configuration not stated), for which, under setting [3], the outcome is “inactive; no positive results”.

As for `COc1ccc(N)c(C)c1`, the Potency (TD50_Rat_Note: TD50 is harmonic mean of more than one positive test, TargetSites_Rat_Female: urinary bladder) is 470 mg/kg/day. Regarding `COC(=O)NN`, the outcome under setting [3] is “inactive; no positive results”. In the case of `O=S(=O)(O)c1cc(S(=O)(=O)O)c2c(N=Nc3ccccc3)c(O)ccc2c1`, the outcome under setting [3] was “inactive; no positive results”. In the case of `CC(=O)Nc1ccc(-c2ccccc2)cc1`, the Potency under setting [5] was 1.18 mg/kg/day. For the compound `NCCCC(N)(C(=O)O)C(F)F` (configuration not stated), the outcome under setting [3] was “inactive; no positive results”. Same read-out and setting: the result for `CC(Oc1c(Cl)cccc1Cl)C1=NCCN1` (configuration not stated) reads “inactive; no positive results”. As for `CN(C)P(=O)(N(C)C)N(C)C`, the Potency (TD50_Rat_Note: TD50 is harmonic mean of more than one positive test, TargetSites_Rat_BothSexes: nasal cavity) was 0.0344 mg/kg/day. As to `BrCCBr`, under “TD50_Rat_Note: TD50 is harmonic mean of more than one positive test, TargetSites_Rat_Female: liver, lung, mammary gland, nasal cavity, pituitary gland, stomach, vascular system”, the Potency is 1.52 mg/kg/day.
